# Results reported in patent publication US11628186B2, “Method and composition for the reduction of viral replication, duration and spread of the COVID-19 and the flu” (priority 2017, dated 2023).
# Key:
# [1] = tested on: patients with lung diseases including COPD; experiment: Comparison of inhaled salts of pyruvate, 5 ml of 0.5 mM solution (Table I); settings: for Increased in FEV-1% lung function: 5 ml of 0.5 mM solution in physiological saline; for Overall Rating 1-10: 1 most negative, 10 best
# Description: All previous studies using pyruvate to treat Allergic Rhinitis, Asthmatic and COPD patients used only the sodium salt form of pyruvic acid in saline. The drug products that were tested in the six Phase I/II clinical trial were differing concentrations of sodium pyruvate dissolved in 0.9% sodium chloride solution (Saline). These drug products contained 0.5 mM, 1.5 mM, or 5.0 mM of sodium pyruvate in physiological saline. They were administered to normal volunteers and COPD and asthmatics by inhalation therapy. […] Various sodium pyruvate solutions were evaluated in the lungs for their ability to enhance FEV1 values and reduce coughing, and lung tightness.
# The amount of the salts delivered in the 5 ml's of the 0.5 mM pyruvate solutions were compared to the amounts of the salts in 5 ml's of human blood. […] When ethyl pyruvate reacts with oxygen radical like hydrogen peroxide, it is converted to ethane and alcohol and Co2 and acetate. Ethane and alcohol are lung irritants.
# This formula can also be made by adding 3% calcium phosphate or dicalcium phosphate to the standard 0.5 mM to 30 mM sodium pyruvate saline solution see Table I.
# [2] = tested on: patients with sinus & lung diseases including IPF and COPD; experiment: Salts of pyruvate as 20 mM nasal sprays (Table IX)
# Text: They never tested the individual salts for their ability to reduce inflammation or increase lung functions.
# [3] = tested on: patients with lung diseases including COPD; experiment: Comparison of inhaled salts of pyruvate, 5 ml of 5 mM solution (Table II); settings: for Increased in FEV-1%: 5 ml of 5 mM solution in saline; for Increased in FEV-1% / Irritation / Percentage Increase in SaO2 over baseline / Percentage increase of Nitric Oxide over baseline / Relief of congestion, coughing and lung tightness: inhaled; for Irritation / Percentage Increase in SaO2 over baseline / Percentage increase of Nitric Oxide over baseline / Relief of congestion, coughing and lung tightness / Overall Rating 1-10: 5 ml of 5 mM solution; for Overall Rating 1-10: 1 most negative, 10 best
# [4] = tested on: patients with chronic Hypoxemia; experiment: Various drugs with or without pre-inhaled pyruvate formulas (Table VII); format: in vivo, human; parameters: SaO2 Measurements taken after medication and compared to baseline / SaO2 Measurements taken after taking the medication and compared to baseline: unit not given here; settings: for SaO2 Measurements taken after medication and compared to baseline: Drug in commercial formula taken in prescribed way; for SaO2 measurements taken after taking medication and compared to baseline: Drug in commercial formula with Pre-inhaled sodium pyruvate, calcium & phosphate & magnesium; for SaO2 Measurements taken after taking the medication and compared to baseline: Drug in commercial formula with pre-inhaled sodium pyruvate saline only
# Description: With the hundreds of patients tested in our various clinical trials, data was gathered as to the type of medications the patients used and the frequency of their use over a six-month period. The patients were asked to rate their medications form 1-10 with 1 being the most irritating with the most side effects and 10 being the best with no irritation and no side effects. In these clinical trials, various drugs were evaluated for irritation, mucus production, and efficacy in humans. The drugs were all evaluated using their current formulations and concentrations against the same formulations with the addition of sodium pyruvate, with the calcium, phosphate and magnesium formula given just prior to the use of their medications. They were instructed to 20 inhale this formula just prior to the use of their medications and to evaluate the effect of their medications on the 1-10 scale.
# Patients on the various inhaled medications whether inhaled or taken orally or by IV infusion, were enlisted in the evaluation of the inhaled sodium pyruvate calcium, phosphate and magnesium formula. The patients were tested for their SaO2 levels and those that had SaO2 levels below 92% were asked to enlist in the study. […] After the SaO2 levels were determined prior to and one hour after taking their medications, the patients returned the following day, SaO2 measurements were taken one hour prior to taking their medications. The patients were then handed the hypotonic inhalation formula of sodium pyruvate with calcium, phosphate magnesium formula and instructed to inhale it one hour before taking their medications, SaO2 measurements were then taken one hour after taking their medications.
# [5] = 5 ml of 0.5 mM solution, inhaled
# [6] = 20 mM (0.22%) nasal spray in 0.9% sodium chloride
# [7] = Drugs commercial formula given as instructed in the package
# [8] = Drugs in commercial formula Pre-inhaled sodium pyruvate & calcium & phosphate & magnesium
# [9] = Drugs in commercial formula with pre-inhaled sodium pyruvate in saline only
compound,measurement,setting,value
"CC(=O)C(=O)O.N [Ammonium, ammonium pyruvate]",Increased in FEV-1% lung function,[1]; inhaled,0%
same,Irritation,[1]; [5],Yes
same,Percentage Increase in SaO2 over baseline,[1]; [5],No
same,Percentage decrease or increase of Nitric Oxide over baseline,[1]; [5],+5.0%
same,"Relief of congestion, coughing and lung tightness",[1]; [5],1
same,Overall Rating 1-10,[1]; 5 ml of 0.5 mM solution,1
same,reduction of nitric oxide,[1]; 5 mls of a 0.5 mM inhalation solution,did not reduce nitric oxide
same,irritation in the nasal cavities compared with the lungs,[1]; evaluated in the nasal cavities,even more irritating
same,Irritation,[1]; inhaled into the lungs,irritating
same,Increased in FEV-1%,[2]; [6],0.0%
same,Irritation,[2]; [6],Yes
same,Percentage Increase in SaO2 over baseline,[2]; [6],No
same,Percentage increase of Nitric Oxide over baseline,[2]; [6],00.0%
same,"Relief of congestion, coughing and lung tightness",[2]; [6],1
same,Overall Rating 1-10,"[2]; 20 mM (0.22%) nasal spray, 1 most negative, 10 best",1
same,Increased in FEV-1%,[3],0%
same,Irritation,[3],Yes
same,Percentage Increase in SaO2 over baseline,[3],No
same,Percentage increase of Nitric Oxide over baseline,[3],35.0%
same,"Relief of congestion, coughing and lung tightness",[3],1
same,Overall Rating 1-10,[3],1
"CC(=O)N[C@@H](CS)C(=O)O [N-acetylcysteine, reference compound]",Increased in FEV-1% lung function,[1]; inhaled,6%
same,Irritation,[1]; [5],None
same,Percentage Increase in SaO2 over baseline,[1]; [5],0%
same,Percentage decrease or increase of Nitric Oxide over baseline,[1]; [5],0%
same,"Relief of congestion, coughing and lung tightness",[1]; [5],8
same,Overall Rating 1-10,[1]; 5 ml of 0.5 mM solution,7
same,SaO2 Measurements taken after medication and compared to baseline,[4],+1
same,SaO2 measurements taken after taking medication and compared to baseline,[4],+4
same,SaO2 Measurements taken after taking the medication and compared to baseline,[4],0
same,Lung functions (rating 1-10),[4]; [7],4
same,Lung functions (rating 1-10),[4]; [8],8
same,Lung functions (rating 1-10),[4]; [9],6
same,Increased in FEV-1%,[3],2%
same,Irritation,[3],yes
same,Percentage Increase in SaO2 over baseline,[3],0%
same,Percentage increase of Nitric Oxide over baseline,[3],1%
same,"Relief of congestion, coughing and lung tightness",[3],7
same,Overall Rating 1-10,[3],7
CN[C@H](CC(C)C)C(=O)N[C@H]1C(=O)N[C@@H](CC(N)=O)C(=O)N[C@H]2C(=O)N[C@H]3C(=O)N[C@H](C(=O)N[C@H](C(=O)O)c4cc(O)cc(O)c4-c4cc3ccc4O)[C@H](O)c3ccc(c(Cl)c3)Oc3cc2cc(c3O[C@@H]2O[C@H](CO)[C@@H](O)[C@H](O)[C@H]2O[C@H]2C[C@](C)(N)[C@H](O)[C@H](C)O2)Oc2ccc(cc2Cl)[C@H]1O [Vancomycin],SaO2 Measurements taken after medication and compared to baseline,[4],−1
same,SaO2 measurements taken after taking medication and compared to baseline,[4],+1
same,SaO2 Measurements taken after taking the medication and compared to baseline,[4],0
same,Lung functions (rating 1-10),[4]; [7],6
same,Lung functions (rating 1-10),[4]; [8],8
same,Lung functions (rating 1-10),[4]; [9],5
CC(=O)N[C@H]1[C@H]([C@H](O)[C@H](O)CO)OC(C(=O)O)=C[C@@H]1N=C(N)N [Zanamivir],SaO2 Measurements taken after medication and compared to baseline,[4],−2
same,SaO2 measurements taken after taking medication and compared to baseline,[4],+5
same,SaO2 Measurements taken after taking the medication and compared to baseline,[4],0
same,Lung functions (rating 1-10),[4]; [7],4
same,Lung functions (rating 1-10),[4]; [8],7
same,Lung functions (rating 1-10),[4]; [9],5
"CCOC(=O)C(C)=O [ethyl pyruvate, reference compound]",FEV1,[1]; 5 mls of a 0.5 mM pyruvate inhalation solution in COPD and asthmatic patients,did not increase FEV-1
same,Irritation,[1]; in vivo,irritating
Insulin,SaO2 Measurements taken after medication and compared to baseline,[4],−2
same,SaO2 measurements taken after taking medication and compared to baseline,[4],+4
same,SaO2 Measurements taken after taking the medication and compared to baseline,[4],+1
same,Lung functions (rating 1-10),[4]; [7],5
same,Lung functions (rating 1-10),[4]; [8],7
same,Lung functions (rating 1-10),[4]; [9],6
Levorphanol Tartrate,SaO2 Measurements taken after medication and compared to baseline,[4],−6
same,SaO2 measurements taken after taking medication and compared to baseline,[4],+6
same,SaO2 Measurements taken after taking the medication and compared to baseline,[4],+1
same,Lung functions (rating 1-10),[4]; [7],2
same,Lung functions (rating 1-10),[4]; [8],8
same,Lung functions (rating 1-10),[4]; [9],6
